Measurements reported in article PMC7226586 (Journal of Medicinal Chemistry, 2019).
Entries after “also recorded” stand apart in the source; their conditions may differ.

Experiments:
substrate-free CYP46A1 = substrate-free CYP46A1 (Homo sapiens, UniProt Q9Y6A2); experiment: Spectral titrations of substrate-free CYP46A1; type: binding; conditions: for spectral response type, substrate-free CYP46A1: P450 difference spectrum
[1] = target: cholesterol-bound CYP46A1 (Homo sapiens, UniProt Q9Y6A2); experiment: Spectral titrations of cholesterol-bound CYP46A1; type: binding; conditions: 20 μM cholesterol; for spectral response type, cholesterol-bound CYP46A1 / spectral response fit, cholesterol-bound CYP46A1: 18 °C
[2] = target: CYP46A1 allosteric sites (EFV binding site, Glu binding site) (Homo sapiens, UniProt Q9Y6A2); experiment: Mapping of the allosteric site; type: biochemical; conditions: for P450 activation with replacements within the Glu-binding site: CYP46A1 mutants K358A, F416A and Y427A; for P450 activation with replacements within the Glu-binding site / P450 activation with replacements within the EFV-binding site: 20 μM compound; for P450 activation with replacements within the EFV-binding site: CYP46A1 mutants R415A and F405A; for allosteric site of binding: from co-incubations and mutants
[3] = target: T1, purified recombinant CYP46A1 (Homo sapiens, UniProt Q9Y6A2); experiment: CYP46A1 enzyme assay; type: biochemical; conditions: for CYP46A1 inhibition at the concentrations tested / shape of concentration dependence curve of CYP46A1 activity: 0–100 μM compound; for effect of co-incubation with (S)-EFV on CYP46A1 activation: 20 μM (S)-EFV; for effect of co-incubation with (S)-EFV on CYP46A1 activation / maximal activation in the presence of L-Glu (fold) / effect of co-incubation with L-Glu on CYP46A1 activation: 20 μM compound; for maximal activation in the presence of L-Glu (fold) / effect of co-incubation with L-Glu on CYP46A1 activation: 100 μM L-Glu; for CYP46A1 inhibition at the 60–100 μM concentrations: 60–100 μM compound
CYP46A1 = CYP46A1 (Homo sapiens, UniProt Q9Y6A2); experiment: Stopped-flow kinetics of compound binding to and release from CYP46A1; conditions: for mechanism of binding to substrate-free CYP46A1: stopped-flow experiments; for spectral binding at 15–30 μM, stopped-flow: substrate-free CYP46A1, 15–30 μM compound
[4] = Cholesterol binding to HPCD; conditions: read-out: Kd of cholesterol for HPCD; 50 mM KPi buffer (pH 7.2) containing 100 mM NaCl at 24 °C
[5] = cited from earlier work
[6] = plasma of EFV-treated subjects; cited from earlier work
[7] = concentrations mimicking the 600 mg/day EFV dose; cited from earlier work
[8] = within 1 h of an intraperitoneal administration; cited from earlier work
[9] = target: T1, purified recombinant CYP46A1; conditions: previous study; cited from earlier work
protein (albumin) = conditions: cited from earlier work
CYP46A1 in the brain = conditions: 0.32 (mg/da)/kg body dose, mice; cited from earlier work

fit of spectral titration curve, substrate-free CYP46A1 (substrate-free CYP46A1)	spectral response type, substrate-free CYP46A1 (substrate-free CYP46A1; 18 °C)	spectral response type, cholesterol-bound CYP46A1 [1]	allosteric site of binding [2]	CYP46A1 activation compared with that with (S)-EFV [3]	shape of concentration dependence curve of CYP46A1 activity [3]	effect of co-incubation with L-Glu on CYP46A1 activation [3]	fit of spectral titration curve, cholesterol-bound CYP46A1 [1]	spectral response fit, cholesterol-bound CYP46A1 [1]	CYP46A1 inhibition at the 60–100 μM concentrations [3]	Compound	other results
hyperbolic	type 1	reverse type 1-like	preferential EFV-site binding	similar	bell-shaped	synergistically activated	sigmoidal	S	–	O=C1CC(C#CC2CC2)(C(F)(F)F)c2cc(Cl)ccc2N1 (racemic) [rac-8]	–
hyperbolic	type 2	reverse type 1	–	–	bell-shaped	–	sigmoidal	S	inhibitory	O=C1Nc2ccc(Cl)cc2[C@@](C#CC2CC2)(C(F)(F)F)O1 [(S)-EFV, (S)-6-chloro-4-(cyclopropylethynyl)-4-(trifluoromethyl)-1,4-dihydro-2H-benzo[d][1,3]oxazin-2-one, reference compound]	brain levels exceeding those in the plasma [8]: 4.6 times; CYP46A1 inhibition at 100 μM [9]: almost completely inhibited; cerebrospinal fluid level [5]: 13.9 to 19.5 ng/mL; plasma level [6]: 2.17 to 3.35 µg/mL; protein (albumin)-bound in the blood (protein (albumin)): ≥ 99.6%; effect on CYP46A1 in the brain (CYP46A1 in the brain): inhibited; mechanism of binding to substrate-free CYP46A1 (CYP46A1): conformational-selection; spectral binding at 15–30 μM, stopped-flow (CYP46A1): measurable

Continued, compound first:

Compound	fit of spectral titration curve, substrate-free CYP46A1 (substrate-free CYP46A1)	spectral response type, substrate-free CYP46A1 (substrate-free CYP46A1; 18 °C)	spectral response type, cholesterol-bound CYP46A1 [1]	allosteric site of binding [2]	CYP46A1 activation compared with that with (S)-EFV [3]	shape of concentration dependence curve of CYP46A1 activity [3]	effect of co-incubation with L-Glu on CYP46A1 activation [3]	fit of spectral titration curve, cholesterol-bound CYP46A1 [1]	spectral response fit, cholesterol-bound CYP46A1 [1]	CYP46A1 inhibition at the 60–100 μM concentrations [3]	other results
FC(F)(F)[C@@]1(C#CC2CC2)OCNc2ccc(Cl)cc21 [(S)-6]	hyperbolic	type 1	did not seem to elicit a quantifiable spectral response; also recorded: no spectral response	mainly with the allosteric site for Glu	lower	bell-shaped	abolished	–	–	–	P450 activation with replacements within the Glu-binding site [2]: largely reduced or abolished; P450 activation with replacements within the EFV-binding site [2]: not significantly affected; CYP46A1 inhibition at the concentrations tested [3]: did not inhibit; effect of co-incubation with (S)-EFV on CYP46A1 activation [3]: synergistic CYP46A1 activation; maximal activation in the presence of L-Glu (fold) [3]: abolished
O=C1Cc2ccc(Cl)cc2C(C#CC2CC2)(C(F)(F)F)O1 (racemic) [rac-5]	sigmoidal	type 1	did not seem to elicit a quantifiable spectral response; also recorded: no spectral response	both EFV- and Glu-binding sites	lower	sigmoidal-like	synergistically activated	–	–	–	spectral response fit, substrate-free CYP46A1 (substrate-free CYP46A1; 18 °C): S; CYP46A1 inhibition at the concentrations tested [3]: did not inhibit
O=C1Nc2cc(O)c(Cl)cc2C(C#CC2CC2)(C(F)(F)F)O1 (racemic) [rac-2]	hyperbolic	type 2	reverse type 1-like	both EFV- and Glu-binding sites	–	bell-shaped	synergistically activated	sigmoidal	S	did not inhibit	–
O=C1Nc2c(O)cc(Cl)cc2C(C#CC2CC2)(C(F)(F)F)O1 (racemic) [rac-1]	hyperbolic	type 2	reverse type 1-like	–	–	bell-shaped	–	sigmoidal	–	did not inhibit	–
O=C1Nc2c(O)cc(Cl)cc2C(C#CC2(O)CC2)(C(F)(F)F)O1 (racemic) [rac-3]	hyperbolic	type 2	reverse type 1-like	mainly with the allosteric site for Glu	–	essentially hyperbolic	lower	hyperbolic	–	–	difference in the apparent spectral Kd versus (S)-EFV (substrate-free CYP46A1; substrate-free CYP46A1): 2 fold; P450 activation with replacements within the Glu-binding site [2]: largely reduced or abolished; P450 activation with replacements within the EFV-binding site [2]: not significantly affected; kon lower than that of (S)-EFV (CYP46A1): 3 fold; mechanism of binding to substrate-free CYP46A1 (CYP46A1): conformational-selection; rates of binding (kobserved) lower than those for (S)-EFV (CYP46A1; substrate-free CYP46A1): ≥ 7 fold; spectral binding at 15–30 μM, stopped-flow (CYP46A1): essentially no spectral binding; effect of co-incubation with (S)-EFV on CYP46A1 activation [3]: synergistic CYP46A1 activation
CC(C)CCC[C@@H](C)[C@H]1CC[C@H]2[C@@H]3CC=C4C[C@@H](O)CC[C@]4(C)[C@H]3CC[C@]12C [cholesterol]	–	–	–	–	–	–	–	–	–	–	Kd (substrate-free CYP46A1; Kd for substrate-free CYP46A1 (M), cholesterol, from an apparent Kd of 80 nM [20] after the correction for HPCD binding): 9e-09 M; Kd [4]: 540 µM; calculated kon higher than that for rac-3 (CYP46A1): 1.9 fold; calculated kon lower than that for (S)-EFV (CYP46A1): 1.7 fold; koff (CYP46A1; read-out: experimental koff (s^–1)): 0.012 ± 0.002 s⁻¹
CCCC#CC1(C(F)(F)F)OC(=O)Nc2ccc(Cl)cc21 (racemic) [rac-9]	hyperbolic	type 1	reverse type 1-like	preferential EFV-site binding	lower	bell-shaped	synergistically activated	sigmoidal	S	–	–
CC1Nc2ccc(Cl)cc2C(C#CC2CC2)(C(F)(F)F)O1 (racemic) [rac-7]	hyperbolic	type 1	did not seem to elicit a quantifiable spectral response; also recorded: no spectral response	mainly with the allosteric site for Glu	lower	bell-shaped	abolished	–	–	–	P450 activation with replacements within the Glu-binding site [2]: largely reduced or abolished; P450 activation with replacements within the EFV-binding site [2]: not significantly affected; effect of co-incubation with (S)-EFV on CYP46A1 activation [3]: synergistic CYP46A1 activation; maximal activation in the presence of L-Glu (fold) [3]: abolished
O=C1Nc2c(O)cc(Cl)cc2[C@@](C#CC2CC2)(C(F)(F)F)O1 [(S)-1, (S)-8-hydroxyEFV]	hyperbolic	type 2	reverse type 1-like	both EFV- and Glu-binding sites	–	bell-shaped	synergistically activated	sigmoidal	S	did not inhibit	cerebrospinal fluid level [5]: 3.1 to 5.3 ng/mL; plasma level [6]: 0.315 to 2.16 µg/mL; cell damage or death in cell culture [7]: induce cell damage or death
O=C1Nc2cc(O)c(Cl)cc2[C@@](C#CC2CC2)(C(F)(F)F)O1 [7-hydroxyEFV, (S)-7-hydroxyEFV]	–	–	–	–	–	–	–	–	–	–	cerebrospinal fluid level [5]: 0.63 ng/mL; plasma level [6]: 0.0088 to 0.225 µg/mL
